The record followed here is ChEMBL document CHEMBL4325920, “Discovery of Clinical Candidate BMS-823778 as an Inhibitor of Human 11β-Hydroxysteroid Dehydrogenase Type 1 (11β-HSD-1)” (ACS Med Chem Lett, 2018).

For assay [1], the target named is T1, Nuclear receptor subfamily 1 group I member 2 (Homo sapiens, UniProt O75469).
T1 sequence (O75469 whole entry): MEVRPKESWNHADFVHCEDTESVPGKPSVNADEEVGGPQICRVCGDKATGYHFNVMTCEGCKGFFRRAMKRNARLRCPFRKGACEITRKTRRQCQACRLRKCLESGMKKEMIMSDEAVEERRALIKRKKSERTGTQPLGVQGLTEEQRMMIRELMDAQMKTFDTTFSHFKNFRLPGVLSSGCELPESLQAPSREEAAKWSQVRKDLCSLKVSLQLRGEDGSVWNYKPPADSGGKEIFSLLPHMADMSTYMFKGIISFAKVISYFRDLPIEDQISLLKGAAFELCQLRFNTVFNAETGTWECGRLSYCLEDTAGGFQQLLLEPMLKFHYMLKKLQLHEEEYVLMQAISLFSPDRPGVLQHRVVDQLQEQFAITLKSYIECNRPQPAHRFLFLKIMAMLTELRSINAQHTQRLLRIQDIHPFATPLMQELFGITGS
Briefly: Activation of PXR (unknown origin). Type of assay: ADME.

Assay [2] concerns the target 11-beta-hydroxysteroid dehydrogenase 1 (Mus musculus, UniProt P50172). Briefly: Inhibition of recombinant mouse 11beta-HSD1 expressed in HEK293 cell microsomes using [3H]cortisone as substrate after 4 hrs by homogeneous immuno-radiometric scintillation proximity assay.

Chain of 11-beta-hydroxysteroid dehydrogenase 1 (P50172 whole entry): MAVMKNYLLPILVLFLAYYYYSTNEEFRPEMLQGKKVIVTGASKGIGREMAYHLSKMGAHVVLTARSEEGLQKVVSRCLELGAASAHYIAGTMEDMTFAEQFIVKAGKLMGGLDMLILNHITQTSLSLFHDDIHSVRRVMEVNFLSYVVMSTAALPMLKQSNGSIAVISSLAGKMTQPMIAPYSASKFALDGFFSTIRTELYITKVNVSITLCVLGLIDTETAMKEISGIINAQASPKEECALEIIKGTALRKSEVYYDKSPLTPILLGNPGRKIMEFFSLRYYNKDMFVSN

For the compound `OCc1cccn2c(C3(c4ccc(Cl)cc4)CC3)nnc12`, in assay [1], the EC50 (as a rule, the concentration at which the effect is half-maximal) is 25 µM. Moreover, in assay [2], the IC50 (commonly the midpoint of a concentration-inhibition curve) is 3.8 µM.

As for `CC(C)(O)CCc1cccn2c(C3(c4ccc(Cl)cc4)CC3)nnc12`, the response in assay [1] was half-maximal at 3.6 µM (EC50). Further, the half-maximal inhibitory concentration (IC50) in assay [2] is above 10 µM.
